This is an account of results in PMC7700248, “Chemical and Biological Study of Novel Aplysiatoxin Derivatives from the Marine Cyanobacterium Lyngbya sp” (Toxins, 2020).

The IC50 is the point on the concentration scale where inhibition reaches its midpoint.

Like-named read-outs stand apart in the source and are kept apart here.

In assay [1] the target is T1, potassium channel Kv1.5 (Homo sapiens, UniProt P22460).
T1 construct: expressed in transfected cells; host or cells: Chinese hamster ovary (CHO) cells
The note with it: read-out: IC50, inhibitory activity against Kv1.5, cited from earlier work.

For another assay, the system named is protein kinase C (PKC). Conditions: ref [20],[21],[34]; cited from earlier work.
The subject of another assay is Artemia salina. The assay can be described thus: Brine shrimp toxicity (lethality) assay. Conditions: 24 h; for survival at 0.1 µM / survival at 1 µM / survival at 10 µM / survival at 30 µM: Artemia salina, read-out: Percentage of Survival of Artemia salina after 24 h. The format is in vivo. As to the method: The lethality assay of brine shrimp A. salina was developed by Vanhaecke et al.. […] Commercially available A. salina or brine shrimp cysts were purchased and cultivated in 3.2% of saline water. Before cultivation, the saline was aerated, and then cysts were kept at room temperature for 24 h. For toxicity screening, hatched larvae were collected and introduced in saline water. Add 0.9% saline water and approximately the same number of larvae 30 per well to make a 96-wells test culture plate. ATXs with 0.1 μM, 1 μM, 10 μM, 30 μM were added to the test culture plate, while the equal volume of dimethyl sulfoxide (DMSO) (Aladdin, Shanghai, China) and dichloromethane (Aladdin, Shanghai, China) were added as blank control test and positive control separately. After 24 h at 25 °C, the percent of survival of A. salina was calculated (Supplementary Materials 1.3.2).
Figure S1.3.1.2. […]
Figure S1.3.1.3. […]
1.3.2. Brine Shrimp Cytotoxicity Assay
Commercially available Artemia salina (A. salina) or brine shrimp cysts were purchased and cultivated in 3.2% of saline water. Before cultivation, the saline was aerated, and then cysts were kept at room temperature for 24 h. For toxicity screenin g, hatched larvae were collected and introduced in saline water. Add saline water and equivalent larvae in per well of 96 wells to make test culture plate.
Aplysiatoxins with 0.1 μM, 1 μM, 10 μM, 30 μM was added to test culture plate, while DMSO and dichloromethane were added as blank control test and positive control separately. After 24 h in 25 °C, the percent of survival of A. salina was calculated. […]

The target in assay [2] is T1, potassium channel Kv1.5. The assay can be described thus: Kv1.5 ion channel inhibitory experiment (whole-cell patch clamp, CHO cells). It is filed as cell-based. As for the experimental part:
Cell preparation: the day before the experiment, digestion of Chinese hamster ovary (CHO) cells (Sigma Chemical Co., St. Louis, MO, USA) with a density of 60–80% by trypsin, and split into some small glass plates, which placed in 35 mm petri dish, then added 10% fetal bovine serum (FBS) (Gibco, CA, USA), and Dulbecco’s modified eagle medium (DMEM) (HyClone, Logan, UT, USA) culture medium without P/S was cultured overnight in an incubator [35, 36, 37] (Supplementary Materials 1.3.1).
Electrophysiology: the cells were transferred to a perfusion tank and perfused with extracellular fluid. The intracellular fluid (mM) was: K Aspartate, 130; MgCl2, 5; EGTA 5; HEPES, 10; Tris-ATP 4; pH 7.2 (KOH titration). The intracellular fluid was stored in small portions in a refrigerator at −80 °C and thawed on the day of the experiment. The electrodes were filled with intracellular fluid and drawn with PC-10 (Narishige, Japan). Whole-cell patch-clamp recording, noise is filtered using one-fifth of the sampling frequency. The cells were clamped at −80 mV and then depolarized to 20 mV with a square wave lasting 2 s to obtain Kv1.5 current. This procedure is repeated every 20 s. After it was stabilized, compound 1, compound 2, and acacetin were perfused, and when the reaction was stabilized, the strength of the blocking was calculated (Supplementary Materials 1.3.1). […]
detection at 190 nm) to afford twenty‐one subfractions (F.D.1‐21). […]
Electrophysiology. […] After it was stabilized, compound 1, compound 2, and acacetin were perfused, and when the reaction was stabilized, the strength of the blocking was calculated.
Data analysis and statistics. […] The IC50 value was determined by fitting the data points to the equation. […]
Figure S1.3.1.1. (A) Kv1.5 traces elicited by 5 s pulses from −80 to + 20 mV and tail currents recorded at −80 mV in the absence and presence of 0.1 μM, 0.3 μM, 1 μM, 3 μM, 10 μM, and 30 μM neo‐ […]
Background: Patch clamp records ionic current or voltage across a cell membrane.

T1 sequence (P22460 whole entry): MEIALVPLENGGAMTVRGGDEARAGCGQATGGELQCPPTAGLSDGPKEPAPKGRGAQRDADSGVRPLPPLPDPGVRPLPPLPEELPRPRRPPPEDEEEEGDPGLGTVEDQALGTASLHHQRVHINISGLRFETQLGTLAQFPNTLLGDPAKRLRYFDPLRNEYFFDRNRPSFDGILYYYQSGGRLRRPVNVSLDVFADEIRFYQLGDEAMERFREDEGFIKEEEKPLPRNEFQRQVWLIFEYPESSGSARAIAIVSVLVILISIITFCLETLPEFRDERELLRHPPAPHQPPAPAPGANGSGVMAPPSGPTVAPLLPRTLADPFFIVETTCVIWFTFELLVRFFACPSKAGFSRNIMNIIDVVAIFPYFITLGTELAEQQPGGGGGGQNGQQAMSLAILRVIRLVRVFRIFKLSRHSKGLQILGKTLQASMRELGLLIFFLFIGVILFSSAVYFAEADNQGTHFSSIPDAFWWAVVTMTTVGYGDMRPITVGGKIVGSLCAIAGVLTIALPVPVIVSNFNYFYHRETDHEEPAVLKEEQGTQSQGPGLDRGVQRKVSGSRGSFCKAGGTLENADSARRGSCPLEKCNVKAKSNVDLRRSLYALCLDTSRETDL

For the molecule `CO[C@@H](CC[C@H](C)[C@H]1O[C@@]23C[C@H](OC(=O)C[C@H]([C@@H](C)O)OC(=O)C[C@](O)(O2)[C@H](C)CC3(C)C)[C@@H]1C)c1cccc(O)c1` [DAT, debromoaplysiatoxin], the IC50 at potassium channel Kv1.5 [1] (ref [33]) is 1.28 ± 0.08 µM. Besides, the “PKC activation (in words)” value in the assay with protein kinase C (PKC) is given as “strong PKC activation”. In addition, the “concentration at which survival of A. salina began to be influenced” value (“concentration at which survival” for short) in the assay with Artemia salina is on record as 0.1 µM. Also, the survival at 0.1 µM in the assay on Artemia salina (0.1 µM) was 70.9 ± 6.3%. In the assay with Artemia salina (1 µM), the survival at 1 µM amounted to 0%. For the same molecule, the survival at 10 µM in the assay on Artemia salina (10 µM) turned out to be 0%. For the same molecule, the survival at 30 µM with Artemia salina (30 µM) stood at 0%.

As to `COC(CCC(C)C1OC23CC(OC(=O)CC(C(C)O)OC(=O)CC(=C(C)CC2(C)C)O3)C1C)c1cccc(O)c1` (centres unmarked) [Anhydro DAT, anhydrodebromoaplysiatoxin], in the assay on Artemia salina, the “concentration at which survival” value was 10 µM, the survival at 0.1 µM worked out at 94 ± 3.46%, the survival at 1 µM is 91.3 ± 6.94% and the survival at 10 µM stood at 0%. In the assay with Artemia salina, the survival at 30 µM was determined as 0%.

For the molecule `COC(CCC(C)C1OC(=O)C(C)(C)CC(C)=C(CC(=O)OC2CC(=O)OC2C)C(=O)CC1C)c1cccc(O)c1` (centres unmarked) [NEO-C, neo-debromoaplysiatoxin C], in the assay with Artemia salina, the survival at 0.1 µM stood at 98.7 ± 2.31%, the survival at 1 µM came out at 99 ± 1.65%, the survival at 10 µM turned out to be 98.9 ± 1.92% and the survival at 30 µM is 94.9 ± 5.27%.

In turn, `COC(CCC(C)C1OC23CC(OC(=O)CC(C(C)O)OC(=O)CC4(CC2(C)CC4(C)O)O3)C1C)c1cccc(O)c1` (centres unmarked) [Compound 1, neo-debromoaplysiatoxin G] registered a half-maximal inhibitory concentration (IC50) against potassium channel Kv1.5 [2] of 1.79 ± 0.22 µM. The “effect on survival of A. salina (in words)” value (“effect on survival” below) in the assay on Artemia salina (30 µM) is given as “no apparent effect”. In addition, in the assay on Artemia salina, the survival at 0.1 µM stood at 98 ± 3.4%, the survival at 1 µM was determined as 92.6 ± 1.54%, the survival at 10 µM was 92.4 ± 4.71% and the survival at 30 µM stood at 91.8 ± 7.73%.

Molecule `COC(CCC(C)C1OC2(C=CC1C)OC(C)(C(=O)CC(=O)OC1CC(=O)OC1C)CC2(C)C)c1cccc(O)c1` (centres unmarked) [Compound 2, neo-debromoaplysiatoxin H] displayed an IC50 on potassium channel Kv1.5 [2] of 1.46 ± 0.14 µM. Also, in the assay on Artemia salina (30 µM), the “effect on survival” value is “no apparent effect”. In the assay on Artemia salina, the survival at 0.1 µM is 97.3 ± 2.38%, the survival at 1 µM amounted to 98.9 ± 1.93%, the survival at 10 µM amounted to 97.3 ± 4.62% and the survival at 30 µM turned out to be 95.5 ± 1.93%.

Take `CO[C@@H](CC[C@H](C)[C@H]1O[C@@]23C[C@H](OC(=O)C2=C(O)[C@H](C)CC3(C)C)[C@@H]1C)c1cccc(O)c1` [NEO-B, neo-debromoaplysiatoxin B]: the half-maximal inhibitory concentration (IC50) at potassium channel Kv1.5 [1] (ref [20],[21],[33]) was 0.3 ± 0.05 µM.

Consider `COC(CCC(C)C1OC2(C=CC1C)CC(=O)C(C)CC2(C)C)c1cccc(O)c1` (centres unmarked) [OAT F, osciliatoxin F], for which the “effect on survival” value with Artemia salina (30 µM) is “no apparent effect”. Moreover, in the assay with Artemia salina, the survival at 0.1 µM amounted to 97.5 ± 2.2%, the survival at 1 µM is 98.8 ± 1.99%, the survival at 10 µM was 95.3 ± 1.92% and the survival at 30 µM was found to be 85.5 ± 2.91%.

For the molecule `COc1ccc(-c2cc(=O)c3c(O)cc(O)cc3o2)cc1` [acacetin], the 50% inhibitory concentration (IC50) at potassium channel Kv1.5 [2] (Kv1.5 expression in CHO cells, holding potential −80 mV, mean ± SEM of 3 to 5 measurements, Hill fit, read-out: IC50, inhibitory effect on Kv1.5 current) was 5.96 ± 0.56 µM.

Take `COC(CCC(C)C1OC23CC(OC(=O)CC(C(C)O)OC(=O)CC(OC)(O2)C(C)CC3(C)C)C1C)c1cccc(O)c1` (centres unmarked) [3-OCH3 DAT, 3-methoxydebromoaplysaitoxin]: in the assay on Artemia salina, the “concentration at which survival” value came to 10 µM, the survival at 0.1 µM turned out to be 94.5 ± 1.87%, the survival at 1 µM was 85.8 ± 6.3% and the survival at 10 µM is 0%. Moreover, in the assay with Artemia salina, the survival at 30 µM was 0%.

With oscillatoxin E [OAT E], on potassium channel Kv1.5 [1] (ref [33]), the IC50 is 0.79 ± 0.03 µM.
